Assay results taken from BindingDB's records for PubMed 7965790 (University of Nebraska, 1994).

Legend:
[1] = molecular target: T1, Alpha-2A adrenergic receptor (Sus scrofa, UniProt P18871)
T1 sequence (P18871 whole entry): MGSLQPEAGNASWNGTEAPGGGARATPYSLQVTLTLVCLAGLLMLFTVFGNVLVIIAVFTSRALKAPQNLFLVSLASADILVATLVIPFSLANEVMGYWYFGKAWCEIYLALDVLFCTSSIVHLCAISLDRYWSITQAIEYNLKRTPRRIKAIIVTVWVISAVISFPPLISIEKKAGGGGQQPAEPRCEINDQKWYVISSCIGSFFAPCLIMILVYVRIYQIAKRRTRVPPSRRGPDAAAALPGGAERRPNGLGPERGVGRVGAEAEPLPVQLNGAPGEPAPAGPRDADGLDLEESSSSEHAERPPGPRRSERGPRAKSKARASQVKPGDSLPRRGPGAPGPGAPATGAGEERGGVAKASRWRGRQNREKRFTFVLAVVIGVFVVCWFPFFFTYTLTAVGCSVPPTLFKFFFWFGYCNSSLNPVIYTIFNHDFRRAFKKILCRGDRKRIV

[2] = molecular target: T2, Alpha-2A adrenergic receptor [16-465] (Rattus norvegicus, UniProt P22909)
T2 construct: 16-465
T2 sequence (P22909 whole entry): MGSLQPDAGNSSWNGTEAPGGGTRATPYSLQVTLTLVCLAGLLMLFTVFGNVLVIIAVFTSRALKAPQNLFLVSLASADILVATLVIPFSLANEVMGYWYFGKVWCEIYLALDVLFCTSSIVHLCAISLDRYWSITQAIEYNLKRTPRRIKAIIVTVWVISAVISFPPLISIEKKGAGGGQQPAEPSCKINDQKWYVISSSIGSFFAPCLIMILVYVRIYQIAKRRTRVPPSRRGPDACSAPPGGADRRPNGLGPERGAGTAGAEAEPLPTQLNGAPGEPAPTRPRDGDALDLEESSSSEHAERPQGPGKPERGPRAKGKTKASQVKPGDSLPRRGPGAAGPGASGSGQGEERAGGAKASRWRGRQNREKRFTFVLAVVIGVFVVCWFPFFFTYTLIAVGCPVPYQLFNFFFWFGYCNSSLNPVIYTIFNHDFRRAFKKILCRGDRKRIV

[3] = molecular target: T3, Alpha-2A adrenergic receptor (Bos taurus, UniProt Q28838)
T3 sequence (Q28838 whole entry): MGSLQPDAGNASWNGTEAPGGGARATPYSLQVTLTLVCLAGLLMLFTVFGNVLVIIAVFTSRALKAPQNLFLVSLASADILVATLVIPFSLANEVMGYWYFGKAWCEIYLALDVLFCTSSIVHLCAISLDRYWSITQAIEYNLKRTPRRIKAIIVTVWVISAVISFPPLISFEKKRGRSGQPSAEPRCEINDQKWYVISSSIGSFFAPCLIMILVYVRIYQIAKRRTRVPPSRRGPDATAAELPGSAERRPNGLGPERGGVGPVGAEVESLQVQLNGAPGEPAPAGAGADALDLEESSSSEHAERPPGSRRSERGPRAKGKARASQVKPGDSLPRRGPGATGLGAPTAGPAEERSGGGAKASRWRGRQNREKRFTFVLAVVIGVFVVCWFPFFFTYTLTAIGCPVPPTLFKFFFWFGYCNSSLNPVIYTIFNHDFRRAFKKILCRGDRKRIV

Row | Ki [1] [nM] | Ki [2] [nM] | Ki [3] [nM] | SMILES
1 | – | 1210 | 1830 | COC(=O)C1=CO[C@@H](C)[C@@H]2CN3CCc4c([nH]c5ccccc45)[C@H]3C[C@H]12 [AKUAMMIGINE]
2 | 1160 | – | 1370 | COc1cc2nc(N3CCN(C(=O)c4ccco4)CC3)nc(N)c2cc1OC [[3H]-Minipress]
3 | 3.19 | – | 35 | Cc1cc(C(C)(C)C)c(O)c(C)c1CC1=NCCN1 [SMR000059324]
4 | 2.87 | – | – | Cc1ccc(N(CC2=NCCN2)c2cccc(O)c2)cc1 [SMR000059054]

The next lines start with the compound.

Row | SMILES | Ki [1] [nM] | Ki [2] [nM] | Ki [3] [nM]
5 | COC(=O)C1=COC(C)C2CN3CCc4c([nH]c5ccccc45)C3CC12 (centres undefined) [Ajmalicine] | 10 | 289 | 653
6 | CC(C)=CCOc1ccc(Cl)c2c1CCN(C)CC2 [SK&F-104078] | 35 | 248 | 153
7 | CN(C)CCCN1c2ccccc2Sc2ccc(Cl)cc21 [[3-(2-Chloro-phenothiazin-10-yl)-propyl]-dimethyl-amine(Chlorpromazine)] | 64 | – | 884
8 | COc1ccccc1N1CCN(CCC2C(=O)c3ccccc3C(C)(C)C2=O)CC1 (centres undefined) [NSC_122211] | 365 | 749 | 352
9 | NCC(O)c1ccc(O)c(O)c1 (stereo not drawn) [Noradrenaline,(+)] | 371 | – | 1090
10 | O=C1NCN(c2ccccc2)C12CCN(CC1COc3ccccc3O1)CC2 (centres undefined) [8-(2,3-Dihydro-benzo[1,4]dioxin-2-ylmethyl)-1-phenyl-1,3,8-triaza-spiro[4.5]decan-4-one] | 3.36 | 70 | 10.5
11 | COc1cccc(OC)c1OCCNCC1Oc2ccccc2OC1c1ccccc1 (centres undefined) [NSC_185453] | 0.95 | 46 | 13.2
12 | CN1C[C@H](Cn2ccnc2-c2ccccc2)C[C@@H]2c3cccc4[nH]c(Br)c(c34)C[C@H]21 [BAM-1303] | 0.52 | 35 | 149
